Several values for one entry are separate records, joined by “and”; a condition that tells them apart may be missing. Identical values can stand only once. Counter-ions that a name gives are not always drawn.
Test: Metabolic stability in human liver microsomes
Conditions: substrate 1 μM, NADPH 1 mM, 37° C., 0-45 min; for microsomal CLint at 1 μM / half-life at 1 μM: human, microsomes; for microsomal CLint at 1 μM: pH 7.4, CLint; for half-life at 1 μM: pH 7.4, t1/2, pooled human liver microsomes 0.5 mg/mL
Procedure: Pooled human liver microsomes were purchased from a commercial supplier. Microsomes were stored at −80° C. prior to use. […] A minus cofactor control incubation was included for each test compound where 0.1 M phosphate buffer pH 7.4 was added instead of NADPH (minus NADPH). Two control compounds (dextromethorphan and verapamil) were included with each test compound. All incubations were performed individually for each test compound. […] The reactions were stopped by transferring incubate into acetonitrile at the appropriate time points, in a 1:3 ratio. The termination plates were then centrifuged at 3,000 rpm for 20 min at 4° C. to precipitate the protein.
From a plot of ln peak area ratio (test compound peak area/internal standard peak area) against time, the gradient of the line was determined.
Elimination rate constant (k)=(−gradient)
where V=Incubation volume (μL)/Microsomal protein (mg).

[1] = pooled human liver microsomes 0.5 mg/mL

Structure (SMILES) | microsomal CLint at 1 μM [1] [µL/min/mg] | half-life at 1 μM [h] | CLint [1] | t1/2 [1]
Cl.[2H]C([2H])([2H])Oc1cc(CCN)c(OC)cc1Br [2-(4-Bromo-2-methoxy-5-(methoxy-d3)phenyl)ethan-1-amine hydrochloride] | 9.22 | 2.5 | – | –
COc1cc(CCN)c(OC)cc1Br [2C-B HCl salt, 4-bromo-2,5-dimethoxyphenethylamine, reference compound] | 9.56 | 2.42 | – | –
COc1ccc2c(c1)[C@]13CCCC[C@@H]1[C@H](C2)N(C)CC3 [dextromethorphan, reference compound] | 51.2 | 0.452 | 53.0 μL/min/mg protein and 55.0 μL/min/mg protein | 0.437 h and 0.42 h
Cl.[2H]C([2H])([2H])Oc1cc(Br)c(OC)cc1C([2H])([2H])C([2H])([2H])N [2-(4-bromo-5-methoxy-2-(methoxy-d3)phenyl)ethan-1,1,2,2-d4-1-amine hydrochloride] | 11.9 | 1.95 | – | –
Cl.[2H]C([2H])([2H])Oc1cc(C([2H])([2H])C([2H])([2H])N)c(OC)cc1Br [2-(4-bromo-2-methoxy-5-(methoxy-d3)phenyl)ethan-1,1,2,2-d4-1-amine hydrochloride] | 10.5 | 2.2 | – | –
Cl.[2H]C([2H])([2H])Oc1cc(Br)c(OC)cc1CCN [2-(4-bromo-5-methoxy-2-(methoxy-d3)phenyl)ethan-1-amine hydrochloride] | 18.2 | 1.27 | – | –
Cl.[2H]C([2H])(N)Cc1cc(OC([2H])([2H])[2H])c(Br)cc1OC [2-(4-bromo-2-methoxy-5-(methoxy-d3)phenyl)ethan-1,1-d2-1-amine hydrochloride] | 10.9 | 2.12 | – | –
Cl.[2H]C([2H])(N)Cc1cc(OC)c(Br)cc1OC([2H])([2H])[2H] [2-(4-bromo-5-methoxy-2-(methoxy-d3)phenyl)ethan-1,1-d2-1-amine hydrochloride] | 12.4 | 1.87 | – | –
